Reference: patent US20230226036A1, “ARIMOCLOMOL FOR TREATING GAUCHER DISEASE” (ORPHAZYME A/S, priority 2020, published 2023)
“Also recorded” adds a separate entry of the source.

Experiments:
[1] = Plasma exposure (AUC0-8) estimated by population PK modelling in GD1/GD3 patients; format: in vivo, human; conditions: 300, 600, 1200 mg/day t.i.d. oral (weight-adjusted), FIG. 1
Source text: All patients underwent an arimoclomol single-dose (100-mg single dose for the 300-mg/day treatment group, 200-mg single dose for the arimoclomol 600-mg/day treatment group, 400-mg single dose for the arimoclomol 1200-mg/day treatment group, or corresponding dose per kg for paediatric patients prior to the effective date of this protocol. Single dose pharmacokinetics (PK) was done with corresponding dose per kg for all patients randomised after the effective date of this protocol) pharmacokinetic (PK) evaluation at Visit 2 following randomization to confirm the suitability (in terms of target investigational medicinal product (AUC0-8—area under the curve [AUC] from time 0 to 8 hours [AUC0-8]) of the selected doses in the trial. Following the single dose, blood samples for PK analysis were collected at predose, and 0.5, 1, 2, 4, and 8 hours postdose. […] The corresponding data was evaluated by an independent assessor to verify the AUC0-8. […]
In the event that the AUC was above the target, or an unexpected profile which could potentially impact the safety of the patient was obtained, and the patient required a dose reduction, the patient was dispensed a reduced dose of IMP (blinded) at Visit 3. […] Additional blood samples for quantitative population PK analysis of arimoclomol were collected predose and at 0.5 hours postdose at Visit 5, and predose and 1.5 hours postdose at Visit 7. […]

[2] = test system: serum chitotriosidase activity; assay: Serum chitotriosidase activity, phase 2 trial in Gaucher disease type 1 or 3 (primary endpoint); format: in vivo, human; conditions: for Relative change in chitotriosidase activity from baseline versus placebo: 6 months, all dosage groups, significance not achieved (p=0.4), FIG. 2
Protocol: This is a placebo-controlled, randomised, double-blinded trial evaluating the response of 3 dose levels of arimoclomol on various pharmacodynamic (PD) biomarkers in blood and cerebrospinal fluid (CSF) as indicators of enhanced glucocerebrosidase (GBA) enzyme activity in GD1 and GD3.
(§1) Eligible GD1 and GD3 patients were randomised into 4 groups on a 1:1:1:1 basis to receive arimoclomol 300 mg/day, arimoclomol 600 mg/day, arimoclomol 1200 mg/day, or placebo treatment (3 times daily [t.i.d] dosing).
The primary efficacy endpoint of the trial was the percentage change in serum chitotriosidase activity (marker of macrophage activation) from baseline to 6 months, where baseline was defined as the mean value of the predose visits (Visit 1 and Visit 2).
The primary efficacy endpoint was analysed using an Analysis of Covariance (ANCOVA) model on the ITT population. The log of chitotriosidase activity was used in the analysis. The response variable for ANCOVA model was the log of chitotriosidase activity at 6 months, and the independent variables included IMP dose as randomized (300 mg/day, 600 mg/day, 1200 mg/day, and 0 mg/day [for placebo]) as a continuous variable, GD type, and log of baseline chitotriosidase. Supportive analysis was conducted using the same model but with the dose actually received at Visit 3 following possible dosing adjustment based on PK assessment at Visit 2.

liver size = assay: Liver size by ultrasound, phase 2 trial in Gaucher disease type 1 or 3; format: in vivo, human; conditions: 6 months, 300/600/1200 mg/day, dose-trend effect p<0.05, FIG. 3
Protocol: as §1
(§2) The imaging efficacy endpoint consisted of the change in the size (centimetres) of the liver and spleen (assessed by ultrasound) at 6 months and bi-annually until trial end. Clinical GD severity endpoints (all patients): • Gaucher disease Type 1 Disease Severity Scoring System (GD1-DS3) • Modified Severity Scoring Tool (mSST)
(§3) Secondary efficacy endpoints, including change in weight and height, change in liver size, change in spleen size, and change in biomarkers (blood and CSF) relative to baseline (where appropriate) were analysed using an ANCOVA model with treatment group (dose actually received at Visit 3 following possible dosing adjustment based on PK assessment at Visit 2, or placebo) and corresponding baseline value as covariate. For the biomarker analysis, appropriate data transformation was conducted before statistical analysis, if necessary.

spleen size = assay: Spleen size by ultrasound, phase 2 trial in Gaucher disease type 1 or 3; format: in vivo, human; conditions: 6 months, 300/600/1200 mg/day, dose trend analysis p<0.10, FIG. 4
Protocol: as §1, §2, §3

haemoglobin = assay: Haemoglobin in patients anaemic at baseline, phase 2 trial in Gaucher disease; format: in vivo, human; conditions: highest dose group (1200 mg/day), time-trend analysis p<0.05, FIG. 5
Protocol: as §1
(§4) The exploratory biomarker endpoints, as measured in the blood, included: • Change* in plasma glucosylsphingosine (GlcSph) levels at 6 months and every 6 months until trial end. • Change* in haemoglobin, ferritin, and platelet levels at 6 months and every 6 months until trial end. • Change* in GBA enzyme activity (leukocytes) at 6 months and every 6 months until trial end. • Change* in serum macrophage inflammatory protein-1b (MIP-1P; cytokine for bone involvement) at 6 months and every 6 months until trial end.
as §3

Gaucher's disease type 1 = assay: Clinical GD1 severity score (GD1-DS3), phase 2 trial in Gaucher disease; format: in vivo, human; conditions: 6 months, statistical significance not achieved
Protocol: as §2, with “Eligible GD1 and GD3 patients were randomised into 4 groups on a 1:1:1:1 basis to receive arimoclomol 300 mg/day, arimoclomol 600 mg/day, arimoclomol 1200 mg/day, or placebo treatment (3 times daily [t.i.d] dosing). The” for “The”

[3] = test system: glycosylsphingosine (lyso-Gb1); assay: Plasma glycosylsphingosine (lyso-Gb1), phase 2 trial in Gaucher disease; format: in vivo, human; conditions: after 6 months, statistical significance not achieved, FIG. 6
Protocol: as §1, §4, §3

[4] = background statement; cited from earlier work

SMILES: [O-][n+]1cccc(/C(Cl)=N/OC[C@H](O)CN2CCCCC2)c1 [arimoclomol, (+)-(R)—N-[2-hydroxy-3-(1-piperidinyl)-propoxy]-pyridine-1-oxide-3-carboximidoyl chloride]
- Plasma exposure (AUC) [1]: dose-dependent increase in plasma exposure
- Relative change in chitotriosidase activity from baseline versus placebo [2]: relative reduction in chitotriosidase activity from baseline
- Relative change in chitotriosidase activity from baseline versus placebo ([2]; listed as Arimoclomol): relative reduction in serum chitotriosidase activity
- Change in chitotriosidase activity across treatment groups ([2]; baseline to 6 months, 300/600/1200 mg/day vs. placebo): lower increase in arimoclomol groups vs. placebo
- Liver size relative to placebo (liver size): dose-dependent effect; also recorded: Clinically meaningful dose-dependent reductions
- Spleen size relative to placebo (spleen size): dose-dependent effect; also recorded: Clinically meaningful dose-dependent reductions
- Haemoglobin over time (haemoglobin): time-dependent increase in haemoglobin
- Clinical GD1 severity score (Gaucher's disease type 1): directional dose-dependent reduction
- Change from baseline of plasma glycosylsphingosine (lyso-Gb1) [3]: trend towards a dose-dependent increase
- Blood-brain barrier passage [4]: ability to cross the blood-brain barrier
